According to paper PMC7580722, “Design of new disubstituted imidazo[1,2-b]pyridazine derivatives as selective Haspin inhibitors. Synthesis, binding mode and anticancer biological evaluation” (Journal of Enzyme Inhibition and Medicinal Chemistry, 2020):
Like-named read-outs stand apart in the source and are kept apart here.

Assays:
HCT-116 cells xenografts = test system: HCT-116 cells xenografts; parameters: method as in PMID 21804608; settings: nude mice xenografts of HCT-116 cells; cited from earlier work
HBL100 spheroids = test: Spheroid (3D) viability, CellTiter-Glo; assay type: cell-based, human; settings: 5 µM, Figure 4(A)
HCT116 spheroids = test: Spheroid (3D) viability, CellTiter-Glo; assay type: cell-based, human; settings: 5 µM, Figure 4(A)
melanoma cancer lines = test system: melanoma cancer lines; parameters: method as in PMID 28928884; settings: alone or in combination with Trametinib; cited from earlier work
HBL100 = test: Cell viability, monolayer (2D), MTS assay; assay type: cell-based; settings: Homo sapiens, HBL-100, 48 h
U-2 OS cells [1] = test: Cell cycle analysis by flow cytometry (propidium iodide); settings: for cells in S phase (% of cell total population): DMSO control 51.9%
Description: Figure 6. […] DNA content was measured by flow cytometry and representative profiles are shown. (B) quantification of the proportion of cells in each phase of the cell cycle from the experiment described in (A). Results are mean percentage (n = 3 independent experiments).
Cellular evaluation methods
All media were supplemented with 10% fetal calf serum (unless overwise specified) and 2 mM L-glutamine and cells were cultured
F68-pluronic acid. Cells were fixed for 2h in ice-cold ethanol, then washed twice in PBS containing 0.1% F68-pluronic acid, centrifuged at 200 g and resuspended in a PBS buffer containing 1% Triton, 100 µg/ml RNase A (Thermo Scientific) and 40 µg/ml propidium iodide (Life Technologies). DNA content was determined using a FACS Canto II (BD) and the data were analyzed using FCS Express Cytometry software (De Novo Software).
Twenty thousand events were collected in each run.

RPE-1 = test: Cell viability, monolayer (2D), MTS assay; assay type: cell-based; settings: Homo sapiens, 48 h
HsCdk2/Cyclin A = target: T1, HsCdk2/Cyclin A (Homo sapiens, UniProt P24941); test: CDK2 kinase assay; assay type: biochemical
T1 construct: made in house; host or cells: baculovirus/Sf9 cells
Description: (§1) Values are IC50 expressed in µM and calculated from dose–response curves (each point on the curves was performed in triplicate). Selectivity indexes (SI; in brackets) are calculated as follows: SI = IC50 kinase X/IC50 Haspin. ND: not determined. *IC50 values obtained using the ADP-Glo methodology (see Experimental section, Supplementary Material). […]
(§2) A, HsCdk9/Cyclin T). Native SscCK1δ /ε and SscGSK3α/β were purified from pig brain whereas HsPlk1, HsCdk1 and HsAurora B were purchased from ProQinase and SignalChem respectively. Kinase assays were performed in […]
(§3) mCi/ml; PerkinElmer) in a final volume of 30 µl as previously reported 51. After 30 min incubation at 30°C, the reaction mix was spotted onto GE healthcare P81 phosphocellulose paper using a FilterMate Harvester (PerkinElmer), and the filter was extensively washed with a 1% phosphoric acid solution. The wet filter-bound radioactivity was determined in the presence of 20 µl scintillation fluid (GE healthcare) with a TopCount® Scintillation and Luminescence Counter (PerkinElmer). IC50 values were calculated from dose-response curves […]
(§4) Kinase activities using the ADP-Glo methodology (ADP-Glo Kinase Assay; Promega) were assayed according to the assay described in Nguyen et al. 52 and Ibrahim et al. 53. […]

HsCDK1 = target: T2, HsCDK1 (Homo sapiens, UniProt P06493); test: CDK1 kinase assay; assay type: biochemical
T2 construct: purchased ProQinase
Description: We therefore tested our compounds on two obvious candidates, HsCDK1 and HsPLK1 (Polo-like_kinase 1) both required for mitotic entry[50]
(§5) Values are IC50 expressed in µM and calculated from dose–response curves (each point from the curves was performed in duplicate). NR: not relevant. […]
(§6) Recombinant protein kinases were expressed and purified from E. coli (HsHaspin kinase domain aa470-798, HsCdk5/p25, RnDYRK1A kinase domain aa1-499, HsPIM1, MmCLK1) or baculovirus/Sf9 cells (HsCdk2/Cyclin A, HsCdk9/Cyclin T). Native SscCK1δ /ε and SscGSK3α/β were purified from pig brain whereas HsPlk1, HsCdk1 and HsAurora B were purchased from ProQinase and SignalChem respectively. Kinase assays were performed in specific buffers and substrates for each kinase tested in the presence of 15 µM [γ-33P] ATP (3,000 Ci/mmol, 10 mCi/ml; PerkinElmer) in a final volume of 30 µl as previously reported 51. After 30 min incubation at 30°C, the reaction mix was spotted onto GE healthcare P81 phosphocellulose paper using a FilterMate Harvester (PerkinElmer), and the filter was extensively washed with a 1% phosphoric acid solution. The wet filter-bound radioactivity was determined in the presence of 20 µl scintillation fluid (GE healthcare) with a TopCount® Scintillation and Luminescence Counter (PerkinElmer). IC50 values were calculated from dose-response curves

U-2 OS = test: Cell viability, monolayer (2D), MTS assay; assay type: cell-based; settings: Homo sapiens, U2OS, 48 h
U-2 OS spheroids = test: Spheroid (3D) viability, CellTiter-Glo; assay type: cell-based, human; settings: Homo sapiens, U2OS
HsPLK1 = target: T3, HsPLK1 (Homo sapiens, UniProt P53350); test: PLK1 kinase assay; assay type: biochemical; settings: Table 4
T3 construct: purchased ProQinase
Description: . We therefore tested our compounds on two obvious candidates, HsCDK1 and HsPLK1 (Polo-like_kinase 1) both required for mitotic entry[50] (Table 4).
as §5, §6

SH-SY5Y = test: Cell viability, monolayer (2D), MTS assay; assay type: cell-based; settings: Homo sapiens, 48 h
HCT116 = test: Cell viability, monolayer (2D), MTS assay; assay type: cell-based; settings: Homo sapiens, HCT-116, 48 h
[2] = test system: Haspin activity (H3T3ph) in U-2 OS cells; test: In-cell Haspin activity, H3T3ph immunofluorescence; assay type: cell-based, human; settings: 24 h; for H3T3ph signal remaining in prometaphase cells (% of ctrl): 0.5 µM; for inhibition at 0.05 µM: Homo sapiens, U2OS, read-out: inhibition of cellular Haspin activity
HsAurora B = target: T4, HsAurora B (Homo sapiens, UniProt Q96GD4); test: Aurora B kinase assay; assay type: biochemical
T4 construct: purchased SignalChem
Description: as §1
as §6, with “curves […]” for “curves”
as §4

Haspin = target: T5, Haspin (Homo sapiens, UniProt Q8TF76); test: ATP competition assay on Haspin kinase activity; assay type: biochemical
T5 construct: aa470-798; made in house; host or cells: E. coli
Description: We first conducted an ATP competition assay with compound 12 on Haspin kinase activity (Figure 3(A)). We tested an ATP concentration range from 5 to 240 µM on compound 12 concentrations ranging from 0.001 to 10 µm.
Figure 3. Binding mode of selected compounds with Haspin. (A) ATP competition assay with compound 12. (B) Crystal structure of Haspin with compound 12. […] (C) Superimposition of the binding mode of compounds 12 (yellow carbon atoms) and 21 (grey carbon atoms) in Haspin active site. The three-letter amino acid code and residue number are labelled next to each side chain.

HsHaspin = target: T6, HsHaspin (Homo sapiens, UniProt Q8TF76); test: Recombinant Haspin kinase assay ([γ-33P]ATP, 15 µM ATP; some values ADP-Glo); assay type: biochemical; settings: average selectivity index over the protein kinases tested vs Haspin
T6 construct: aa470-798; made in house; host or cells: E. coli
T6 sequence (Q8TF76 470-798): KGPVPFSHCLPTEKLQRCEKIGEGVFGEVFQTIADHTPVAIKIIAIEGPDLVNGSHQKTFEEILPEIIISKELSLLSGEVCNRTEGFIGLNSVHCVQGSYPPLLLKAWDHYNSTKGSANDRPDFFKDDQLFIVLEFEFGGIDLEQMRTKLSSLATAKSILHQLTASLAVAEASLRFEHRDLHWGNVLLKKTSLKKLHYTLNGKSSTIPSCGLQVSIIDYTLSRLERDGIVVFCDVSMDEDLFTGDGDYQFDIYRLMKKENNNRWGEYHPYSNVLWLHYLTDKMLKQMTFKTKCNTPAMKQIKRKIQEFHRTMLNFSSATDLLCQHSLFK
Description: as §1, §2, §3, §4

U-2 OS cells [3] = test: Scratch wound cell migration assay (IncuCyte); assay type: cell-based, human; settings: 0.6 µM, 0.5% FBS, normalised against DMSO control (100%)
[4] = 48 h, 2 days, Figure 4(B), read-out: U-2 OS spheroid remaining viability

T2 sequence (P06493 whole entry): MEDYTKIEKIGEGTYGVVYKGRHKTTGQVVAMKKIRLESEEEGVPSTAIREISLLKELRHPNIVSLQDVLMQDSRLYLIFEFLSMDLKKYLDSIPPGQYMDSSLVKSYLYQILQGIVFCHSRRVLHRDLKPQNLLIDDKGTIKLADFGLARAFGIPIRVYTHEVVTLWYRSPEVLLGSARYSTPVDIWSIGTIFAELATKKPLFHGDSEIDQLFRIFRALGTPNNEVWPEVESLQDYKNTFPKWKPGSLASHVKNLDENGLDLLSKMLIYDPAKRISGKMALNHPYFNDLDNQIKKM
T2 sequence (P14635 whole entry partner): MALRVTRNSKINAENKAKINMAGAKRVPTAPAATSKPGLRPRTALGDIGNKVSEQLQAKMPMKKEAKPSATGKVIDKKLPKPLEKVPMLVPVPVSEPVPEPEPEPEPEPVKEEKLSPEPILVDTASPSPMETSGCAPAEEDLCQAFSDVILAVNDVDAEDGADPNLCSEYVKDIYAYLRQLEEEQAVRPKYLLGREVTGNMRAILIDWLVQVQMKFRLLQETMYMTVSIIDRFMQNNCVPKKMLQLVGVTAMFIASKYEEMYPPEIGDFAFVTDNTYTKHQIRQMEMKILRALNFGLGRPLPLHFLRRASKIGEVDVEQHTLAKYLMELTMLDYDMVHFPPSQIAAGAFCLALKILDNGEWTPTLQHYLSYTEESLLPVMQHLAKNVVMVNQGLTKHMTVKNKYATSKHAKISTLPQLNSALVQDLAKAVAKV
T3 sequence (P53350 whole entry): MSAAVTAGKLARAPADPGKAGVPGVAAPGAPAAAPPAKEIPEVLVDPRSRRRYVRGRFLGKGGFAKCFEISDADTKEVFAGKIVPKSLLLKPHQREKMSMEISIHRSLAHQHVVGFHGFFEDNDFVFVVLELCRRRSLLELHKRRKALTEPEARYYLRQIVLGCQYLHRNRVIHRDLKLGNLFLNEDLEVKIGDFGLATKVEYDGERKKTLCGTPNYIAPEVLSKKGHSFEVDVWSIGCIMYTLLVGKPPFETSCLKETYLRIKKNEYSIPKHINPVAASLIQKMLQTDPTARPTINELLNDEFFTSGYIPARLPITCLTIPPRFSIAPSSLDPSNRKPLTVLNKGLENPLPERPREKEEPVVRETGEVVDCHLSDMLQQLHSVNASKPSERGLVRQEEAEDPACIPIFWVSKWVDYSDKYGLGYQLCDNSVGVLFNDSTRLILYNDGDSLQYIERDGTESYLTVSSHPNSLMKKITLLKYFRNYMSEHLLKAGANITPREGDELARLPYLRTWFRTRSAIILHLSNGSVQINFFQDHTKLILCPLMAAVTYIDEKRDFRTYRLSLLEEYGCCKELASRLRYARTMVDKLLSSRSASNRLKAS
T4 sequence (Q96GD4 whole entry): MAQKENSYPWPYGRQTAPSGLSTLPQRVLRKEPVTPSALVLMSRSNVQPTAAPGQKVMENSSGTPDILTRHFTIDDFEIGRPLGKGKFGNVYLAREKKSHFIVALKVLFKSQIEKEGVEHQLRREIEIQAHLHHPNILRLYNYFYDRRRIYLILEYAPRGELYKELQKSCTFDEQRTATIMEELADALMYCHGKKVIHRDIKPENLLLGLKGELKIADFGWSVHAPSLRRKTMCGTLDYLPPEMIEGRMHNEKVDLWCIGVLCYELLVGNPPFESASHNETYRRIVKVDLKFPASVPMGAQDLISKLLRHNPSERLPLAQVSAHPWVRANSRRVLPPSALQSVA

In the case of `CCCNc1ccc2ncc(-c3ccc4[nH]ncc4c3)n2n1` [Compound 5, reference compound], the “effect on angiogenesis and tumour growth” value (HCT-116 cells xenografts) is given as “reduced angiogenesis and tumour growth”, the “HBL-100 spheroid viability (% of DMSO control)” value (HBL100 spheroids; 48 h) is given as “without any significant effect” and the HBL100 spheroid viability (HBL100 spheroids; 10 days) is given as “remained mostly unresponsive”. For the same molecule, the HCT116 spheroid viability (HCT116 spheroids; 48 h) was “without any significant effect”, the HCT116 spheroid viability (HCT116 spheroids; 10 days) was “remained mostly unresponsive” and the “effect on cell viability and mobility of melanoma lines” value (melanoma cancer lines) was “affects also cell viability and mobility of several melanoma cancer lines”. For the same molecule, the EC50 (HBL100) was > 10 µM, the “cells in S phase (% of cell total population)” value (U-2 OS cells [1]; 2.5 µM, 24 h, U-2 OS) was 30.9% and the “cell cycle effect (in words)” value (U-2 OS cells [1]; Figure 2) was “Cell cycle arrest in G2/M”. The EC50 (RPE-1) was 3.8 µM, the IC50 (HsCdk2/Cyclin A) was 91 nM and the IC50 (HsCDK1) was 29 nM. It also gave an EC50 (U-2 OS) of 5.1 µM, a viability at 5 µM (U-2 OS spheroids; [4]) of 9.7% and a viability at 5 µM (U-2 OS spheroids; 240 h, 10 days, Figure 4(A), read-out: U-2 OS spheroid viability (% of DMSO control)) of 1%. For the same molecule, the viability at 5 µM (U-2 OS spheroids; 48 h, Figure 4(A), read-out: U-2 OS spheroid viability (% of DMSO control)) was 49%, the IC50 (HsPLK1) was > 10 µM and the EC50 (SH-SY5Y) was > 10 µM. The EC50 (HCT116) was 9 µM, the “H3T3ph signal remaining in prometaphase cells (% of ctrl)” value [2] was 2.5% and the inhibition at 0.05 µM [2] was > 80%.

In the case of `CC[C@H](CO)Nc1ccc2ncc(-c3ccc4[nH]ncc4c3)n2n1` [Compound 12], the “Aurora B inhibition (in words)” value (HsAurora B) is reported as “did not inhibit Aurora B kinase”, the IC50 (Haspin; 5 µM ATP, read-out: IC50 Haspin at 5 µM ATP) is reported as 6 nM and the IC50 (Haspin; 240 µM ATP, read-out: IC50 Haspin at 240 µM ATP) is reported as 950 nM. The “average SI” value (HsHaspin) was 24.2, the EC50 (HBL100) was 6.6 µM and the “normalised wound closure after 24 h” value (U-2 OS cells [3]) was 88%. For the same molecule, the “cells in G2/M phase (% of cell total population)” value (U-2 OS cells [1]; 2.5 µM, 24 h, U-2 OS, DMSO control 12.8%) was 29.9%, the “cells in S phase (% of cell total population)” value (U-2 OS cells [1]; 2.5 µM, 24 h, U-2 OS) was 34.4% and the EC50 (RPE-1) was 6.8 µM. For the same molecule, the IC50 (HsCdk2/Cyclin A; read-out: IC50 CDK2) was 110 nM, the “SI CDK1/Haspin” value (HsCDK1; SI = IC50 CDK1/IC50 Haspin) was 0.8 and the IC50 (HsCDK1; Table 4, read-out: IC50 HsCDK1) was 52 nM. For the same molecule, the EC50 (U-2 OS) was > 10 µM, the viability at 5 µM (U-2 OS spheroids; [4]) was 13.1% and the viability at 1 µM (U-2 OS spheroids; 240 h, 1 µM, 10 days, Figure 4(B), read-out: U-2 OS spheroid remaining viability) was 66%. The viability at 2.5 µM (U-2 OS spheroids; 240 h, 2.5 µM, 10 days, Figure 4(B), read-out: U-2 OS spheroid remaining viability) was 50%, the IC50 (HsPLK1) was > 10 µM and the EC50 (SH-SY5Y) was > 10 µM. The EC50 (HCT116) was > 10 µM, the “H3T3ph signal remaining in prometaphase cells (% of ctrl)” value [2] was 1.9% and the inhibition at 0.05 µM [2] was > 80%.
